#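 All cell lines were grown in 96-well plates and treated with compound for 48 hours. At the GI50, growth is halved. TGI: total growth inhibition.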
# Tests used:
# Experiment in all cases: DTP human tumour cell line panel, 48 h
# SK-MEL-5 melanoma = system: SK-MEL-5 melanoma
# UACC-62 melanoma = system: UACC-62 melanoma
# SF-268 CNS = system: SF-268 CNS
# NCI-H23 lung = system: NCI-H23 lung
# KM12 colon = system: KM12 colon
# EKVX NSCLC = system: EKVX NSCLC
# COLO 205 colon = system: COLO 205 colon
# UO-31 renal = system: UO-31 renal
# SNB-19 CNS = system: SNB-19 CNS
# NCI-H226 lung = system: NCI-H226 lung
# NCI/ADR-RES ovarian = system: NCI/ADR-RES ovarian
# SK-MEL-28 melanoma = system: SK-MEL-28 melanoma
# 786-0 renal = system: 786-0 renal
# HCC-2998 colon = system: HCC-2998 colon
# HCT-15 colon = system: HCT-15 colon
# A498 renal = system: A498 renal
# SK-OV-3 ovarian = system: SK-OV-3 ovarian
# SF-295 CNS = system: SF-295 CNS
# M14 melanoma = system: M14 melanoma
# HOP-92 NSCLC = system: HOP-92 NSCLC
# LOX IMVI melanoma = system: LOX IMVI melanoma
# CAKI-1 renal = system: CAKI-1 renal
# SR leukemia = system: SR leukemia
# SNB-75 CNS = system: SNB-75 CNS
# SK-MEL-2 melanoma = system: SK-MEL-2 melanoma
# U251 CNS = system: U251 CNS
# MDA-MB-435 = system: MDA-MB-435
# DU-145 prostate = system: DU-145 prostate
# A549 NSCLC = system: A549 NSCLC
# HS 578T breast = system: HS 578T breast
# IGROV1 ovarian = system: IGROV1 ovarian
# SF-539 CNS = system: SF-539 CNS
# ACHN renal = system: ACHN renal
# HCT-116 colon = system: HCT-116 colon
# SW-620 colon = system: SW-620 colon
# NCI-H460 lung = system: NCI-H460 lung
# TK-10 renal = system: TK-10 renal
# NCI-H522 lung = system: NCI-H522 lung
# MOLT-4 leukemia = system: MOLT-4 leukemia
# SN12C renal = system: SN12C renal
# BT-549 breast = system: BT-549 breast
# OVCAR-8 ovarian = system: OVCAR-8 ovarian
# MALME-3M melanoma = system: MALME-3M melanoma
# OVCAR-4 ovarian = system: OVCAR-4 ovarian
# RXF 393 renal = system: RXF 393 renal
# OVCAR-5 ovarian = system: OVCAR-5 ovarian
# OVCAR-3 ovarian = system: OVCAR-3 ovarian
# HOP-62 NSCLC = system: HOP-62 NSCLC
# K-562 leukemia = system: K-562 leukemia
# HL-60(TB) leukemia = system: HL-60(TB) leukemia
# MDA-MB-231 breast = system: MDA-MB-231 breast
# CCRF-CEM leukemia = system: CCRF-CEM leukemia
# T-47D breast = system: T-47D breast
# RPMI-8226 leukemia = system: RPMI-8226 leukemia
# UACC-257 melanoma = system: UACC-257 melanoma
# PC-3 prostate = system: PC-3 prostate
# HT29 colon = system: HT29 colon
smiles,measurement,setting,value
COc1ccc(NC2=C(I)C(=O)c3ncccc3C2=O)cc1,GI50,SK-MEL-5 melanoma,347 nM
same,TGI,SK-MEL-5 melanoma,1420 nM
same,GI50,UACC-62 melanoma,1660 nM
same,TGI,UACC-62 melanoma,3400 nM
same,GI50,SF-268 CNS,1280 nM
same,TGI,SF-268 CNS,4230 nM
same,GI50,NCI-H23 lung,327 nM
same,TGI,NCI-H23 lung,1680 nM
same,GI50,KM12 colon,1680 nM
same,TGI,KM12 colon,3770 nM
same,GI50,EKVX NSCLC,1730 nM
same,TGI,EKVX NSCLC,3680 nM
same,GI50,COLO 205 colon,1680 nM
same,TGI,COLO 205 colon,3470 nM
same,GI50,UO-31 renal,850 nM
same,TGI,UO-31 renal,2210 nM
same,GI50,SNB-19 CNS,1180 nM
same,TGI,SNB-19 CNS,3290 nM
same,GI50,NCI-H226 lung,1420 nM
same,TGI,NCI-H226 lung,2830 nM
same,GI50,NCI/ADR-RES ovarian,1570 nM
same,TGI,NCI/ADR-RES ovarian,4410 nM
same,GI50,SK-MEL-28 melanoma,1660 nM
same,TGI,SK-MEL-28 melanoma,3300 nM
same,GI50,786-0 renal,1850 nM
same,TGI,786-0 renal,4740 nM
same,GI50,HCC-2998 colon,1450 nM
same,TGI,HCC-2998 colon,3010 nM
same,GI50,HCT-15 colon,516 nM
same,TGI,HCT-15 colon,2420 nM
same,GI50,A498 renal,1740 nM
same,TGI,A498 renal,3280 nM
same,GI50,SK-OV-3 ovarian,1360 nM
same,TGI,SK-OV-3 ovarian,2720 nM
same,GI50,SF-295 CNS,1670 nM
same,TGI,SF-295 CNS,3160 nM
same,GI50,M14 melanoma,1290 nM
same,TGI,M14 melanoma,2900 nM
same,GI50,HOP-92 NSCLC,1480 nM
same,TGI,HOP-92 NSCLC,3780 nM
same,GI50,LOX IMVI melanoma,309 nM
same,TGI,LOX IMVI melanoma,1570 nM
same,GI50,CAKI-1 renal,1210 nM
same,TGI,CAKI-1 renal,2620 nM
same,GI50,SR leukemia,546 nM
same,TGI,SR leukemia,9610 nM
same,GI50,SNB-75 CNS,1400 nM
same,TGI,SNB-75 CNS,2770 nM
same,GI50,SK-MEL-2 melanoma,1490 nM
same,TGI,SK-MEL-2 melanoma,3180 nM
same,GI50,U251 CNS,673 nM
same,TGI,U251 CNS,2120 nM
same,GI50,MDA-MB-435,253 nM
same,TGI,MDA-MB-435,628 nM
same,GI50,DU-145 prostate,524 nM
same,TGI,DU-145 prostate,1870 nM
same,GI50,A549 NSCLC,1840 nM
same,TGI,A549 NSCLC,3910 nM
same,GI50,HS 578T breast,834 nM
same,TGI,HS 578T breast,5040 nM
same,GI50,IGROV1 ovarian,417 nM
same,TGI,IGROV1 ovarian,1930 nM
same,GI50,SF-539 CNS,1410 nM
same,TGI,SF-539 CNS,2750 nM
same,GI50,ACHN renal,1810 nM
same,TGI,ACHN renal,8530 nM
same,GI50,HCT-116 colon,494 nM
same,TGI,HCT-116 colon,2510 nM
same,GI50,SW-620 colon,1130 nM
same,TGI,SW-620 colon,3060 nM
same,GI50,NCI-H460 lung,647 nM
same,TGI,NCI-H460 lung,2240 nM
same,GI50,TK-10 renal,2140 nM
same,TGI,TK-10 renal,3960 nM
same,GI50,NCI-H522 lung,827 nM
same,TGI,NCI-H522 lung,2530 nM
same,GI50,MOLT-4 leukemia,2060 nM
same,TGI,MOLT-4 leukemia,5790 nM
same,GI50,SN12C renal,1050 nM
same,TGI,SN12C renal,2270 nM
same,GI50,BT-549 breast,1270 nM
same,TGI,BT-549 breast,2590 nM
same,GI50,OVCAR-8 ovarian,1840 nM
same,TGI,OVCAR-8 ovarian,5790 nM
same,GI50,MALME-3M melanoma,1190 nM
same,TGI,MALME-3M melanoma,2440 nM
same,GI50,OVCAR-4 ovarian,1120 nM
same,TGI,OVCAR-4 ovarian,2350 nM
same,GI50,RXF 393 renal,1410 nM
same,TGI,RXF 393 renal,2820 nM
same,GI50,OVCAR-5 ovarian,1690 nM
same,TGI,OVCAR-5 ovarian,3150 nM
same,GI50,OVCAR-3 ovarian,270 nM
same,TGI,OVCAR-3 ovarian,1130 nM
same,GI50,HOP-62 NSCLC,457 nM
same,TGI,HOP-62 NSCLC,1870 nM
same,GI50,K-562 leukemia,533 nM
same,TGI,K-562 leukemia,5190 nM
same,GI50,HL-60(TB) leukemia,1940 nM
same,TGI,HL-60(TB) leukemia,4340 nM
same,GI50,MDA-MB-231 breast,2080 nM
same,TGI,MDA-MB-231 breast,7640 nM
same,GI50,CCRF-CEM leukemia,2040 nM
same,TGI,CCRF-CEM leukemia,6550 nM
same,GI50,T-47D breast,1590 nM
same,TGI,T-47D breast,4170 nM
same,GI50,RPMI-8226 leukemia,1170 nM
same,TGI,RPMI-8226 leukemia,3850 nM
same,GI50,UACC-257 melanoma,1350 nM
same,TGI,UACC-257 melanoma,2720 nM
same,GI50,PC-3 prostate,972 nM
same,TGI,PC-3 prostate,7990 nM
same,GI50,HT29 colon,3070 nM
same,TGI,HT29 colon,10200 nM

# Source: PubChem BioAssay (NCI)
